“Also recorded” adds a separate entry of the source. Blank lines part the entries; values can stand above or below the compound they belong to.
Key:
[1] = molecular target: T1, AdoMet-DC from MRC5 Cells (Homo sapiens, UniProt P17707); assay: Effect of compounds on AdoMet-DC from MRC5 cells (crude enzyme preparation); type: biochemical; conditions: AdoMet 30 μM, read-out: ID50 (the source's name)
T1 construct: Effect of Compounds on AdoMet-DC from MRC5 Cells; endogenous in cells; host or cells: MRC5 cells (crude enzyme preparation)
T1 sequence (P17707 68-334 limits assumed): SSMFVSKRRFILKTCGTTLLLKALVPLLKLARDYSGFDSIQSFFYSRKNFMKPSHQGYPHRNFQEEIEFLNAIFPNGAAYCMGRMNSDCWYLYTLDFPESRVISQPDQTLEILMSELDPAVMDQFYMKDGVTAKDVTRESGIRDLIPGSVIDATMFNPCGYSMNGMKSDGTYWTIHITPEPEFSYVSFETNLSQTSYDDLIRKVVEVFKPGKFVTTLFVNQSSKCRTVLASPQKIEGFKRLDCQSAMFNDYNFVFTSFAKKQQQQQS
T1 sequence (P17707 1-67 limits assumed): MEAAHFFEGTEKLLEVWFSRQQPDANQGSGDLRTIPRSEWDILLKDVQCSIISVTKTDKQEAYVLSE
Experimental: Effect of Compounds on AdoMet-DC from MRC5 Cells
mixture contained AdoMet at a concentration of 30 μM. Each inhibitor
was tested at a series of concentrations.

L1210 Cells [2] = assay: Polyamine levels in L1210 cells treated with 25; type: cell-based; conditions: for Polyamine Content, Putrescine / Polyamine Content, Spermidine / Polyamine Content, Spermine: +100 μM
From the text: (§1) Polyamine Levels in L1210 Cells Treated with --25.

L1210 Cells [3] = assay: Cell number of L1210 cells treated with 25; type: cell-based; conditions: 96 hrs; +100 μM
From the text: as §1

HCMV = assay: In vitro antiviral activity against cytomegalovirus: HCMV yields in MRC5 cell monolayer cultures; type: cell-based
Experimental: The Effects of --25 on HCMV Yields in MRC5
*Treatment with --25 began 72 hours prior to virus adsorption. Culture
fluids were replaced with fresh drug and medium 24 hours before virus
infection, immediately following virus infection, and 3 days p.i.

- IC50 [1]: 600 nM
SMILES: CN(CCNC(=O)NN)C[C@H]1O[C@@H](n2cnc3c(N)ncnc32)[C@H](O)[C@@H]1O [Compound 16, 5'-Deoxy-5'-[N-methyl-N-[2-(hydrazinecarboxamido)ethyl]aminoadenosine, sesquisulfate dihydrate]

- IC50 [1]: 1800 nM
SMILES: CN(CCCNC(=S)NN)C[C@H]1O[C@@H](n2cnc3c(N)ncnc32)[C@@H]2OC(C)(C)O[C@@H]21 [Compound 22, 2',3'-O-Methylethylidene-5'-deoxy-5'-[N-methyl-N-[3-(hydrazinethiocarboxamido)propyl]]aminoadenosine]

SMILES: CN(CCCNN)C[C@H]1O[C@@H](n2cnc3c(N)ncnc32)[C@H](O)[C@@H]1O [Compound 25, 5'-Deoxy-5'-[N-methyl-N-(3-hydrazinopropyl)]aminoadenosine sesquisulfate 1.8H2 O.0.1EtOH]
- Polyamine Content, Putrescine (L1210 Cells [2]; 24 hrs): 3.16 umol/10^6 Cells
- Polyamine Content, Spermidine (L1210 Cells [2]; 24 hrs): 0.58 umol/10^6 Cells
- Polyamine Content, Spermine (L1210 Cells [2]; 24 hrs): 0.20 umol/10^6 Cells
- Polyamine Content, Putrescine (L1210 Cells [2]; 48 hrs): 4.91 umol/10^6 Cells
- Polyamine Content, Spermidine (L1210 Cells [2]; 48 hrs): 0.78 umol/10^6 Cells
- Polyamine Content, Spermine (L1210 Cells [2]; 48 hrs): 0.16 umol/10^6 Cells
- Polyamine Content, Putrescine (L1210 Cells [2]; 96 hrs): 5.69 umol/10^6 Cells
- Polyamine Content, Spermidine (L1210 Cells [2]; 96 hrs): 0.65 umol/10^6 Cells
- Polyamine Content, Spermine (L1210 Cells [2]; 96 hrs): 0.19 umol/10^6 Cells
- effect on spermidine, spermine and putrescine levels (L1210 Cells [2]; in words, Table 4): decrease in spermidine and spermine levels; also recorded: increase in putrescine levels
- Cell Number × 10^-5 per mL (L1210 Cells [3]): 17 × 10^-5 per mL
- CMV Yield (PFU/ml) (HCMV; 3.2 μM): 5.8 PFU/ml
- CMV Yield (log10 PFU/ml) (HCMV; 3.2 μM): 5.8 × 10^5 log10 PFU/ml
- CMV Yield (PFU/ml) (HCMV; 10 μM): 5.8 PFU/ml
- CMV Yield (log10 PFU/ml) (HCMV; 10 μM): 6.3 × 10^5 log10 PFU/ml
- CMV Yield (PFU/ml) (HCMV; 32 μM): 5.8 PFU/ml
- CMV Yield (log10 PFU/ml) (HCMV; 32 μM): 5.8 × 10^5 log10 PFU/ml
- CMV Yield (PFU/ml) (HCMV; 100 μM): 5.6 PFU/ml
- CMV Yield (log10 PFU/ml) (HCMV; 100 μM): 4.2 × 10^5 log10 PFU/ml
- CMV Yield (PFU/ml) (HCMV; 320 μM): 5.1 PFU/ml
- CMV Yield (log10 PFU/ml) (HCMV; 320 μM): 1.2 × 10^5 log10 PFU/ml
- CMV Yield (PFU/ml) (HCMV; 1000 μM): 2.2 PFU/ml
- CMV Yield (log10 PFU/ml) (HCMV; 1000 μM): 1.4 × 10^2 log10 PFU/ml
- inhibition at 10 µM (HCMV; Human betaherpesvirus 5, MRC5, 10 μM, read-out: Reduction (%) of CPE at Time of Virus Harvest): 0%
- inhibition at 100 µM (HCMV; Human betaherpesvirus 5, MRC5, 100 μM, read-out: Reduction (%) of CPE at Time of Virus Harvest): 0%
- inhibition at 320 µM (HCMV; Human betaherpesvirus 5, MRC5, 320 μM, read-out: Reduction (%) of CPE at Time of Virus Harvest): 0%
- IC50 [1]: 8 nM
